Data: the PolyMetriX glass transition set
± gives the standard deviation of the reports.

Going from `*Oc1ccc(C2(c3ccc(OC(=O)OC4C(C)(C)C(OC(*)=O)C4(C)C)cc3)c3ccccc3-c3ccccc32)cc1` (repeat unit) to `*Oc1ccc(C(C)(c2ccccc2)c2ccc(OC(*)=O)cc2)cc1` (repeat unit), the glass transition temperature falls from 214.00 °C to 179.00 °C.

First: *CCOC(=O)/C=C/C(=O)O* (repeat unit)
Second: *CCOC(=O)CCCCC(=O)O* (repeat unit) [Poly(ethylene adipate)]
The glass transition temperature of the first is higher: -10.00 °C for the first, -48.83 ± 8 °C for the second.

Going from `*CC(*)c1cccc2ccccc12` (repeat unit) to `*CC(*)c1ccc(Br)cc1` (repeat unit) [Poly(4-bromostyrene)], the glass transition temperature falls from 160.00 °C to 140.4 ± 5.4 °C.

First: *c1ccc(Oc2ccc(S(=O)(=O)c3ccc(Oc4ccc(-c5c6c(c(*)c7ccccc57)C(=O)N(CCCCCCCCCCCC)C6=O)cc4)cc3)cc2)cc1 (repeat unit)
Second: *Oc1ccc(S(=O)(=O)c2ccc(Oc3ccc(C(=O)c4cc(Br)cc(C(=O)c5ccc(*)cc5)c4)cc3)cc2)cc1 (repeat unit)
The glass transition temperature of the first is lower: 167.00 °C for the first, 192.00 °C for the second.

First: *C(C)C(*)C(=O)OC12CC3CC(C)(CC(C)(C3)C1)C2 (repeat unit)
Second: *CC(*)C(=O)OCC1(CC)COC(c2ccccc2)OC1 (repeat unit)
The glass transition temperature of the first is higher: 194.50 °C for the first, 50.00 °C for the second.

First: *OC(F)(F)COC(=O)c1cc(OCCCCC)cc(C(=O)OCC(*)(F)F)c1 (repeat unit)
Second: *Oc1ccc(CC(NC(=O)Cc2ccc(OC(=O)CCCC(*)=O)cc2)C(=O)OCCCCCC)cc1 (repeat unit)
The glass transition temperature of the first is lower: 14.00 °C for the first, 42.00 °C for the second.

Going from `*c1ccc(C(=O)c2cccc(C(=O)c3ccc(S(*)(=O)=O)cc3)c2)cc1` (repeat unit) to `*Nc1ccc(NC(=O)c2cc(C(*)=O)cc(S(=O)(=O)c3ccccc3)c2)cc1` (repeat unit), the glass transition temperature rises from 198.00 °C to 308.00 °C.

Compared with `*Oc1cccc(NC(=O)CCCCCC(=O)Nc2ccc(*)cc2)c1` (repeat unit), `*CCCCCCc1nc2cc(NC(=O)CCCCCCC(=O)Nc3ccc4oc(*)nc4c3)ccc2o1` (repeat unit) is lower in glass transition temperature: 130.00 °C for the first, 77.00 °C for the second.

Going from `*C(=O)Nc1ccc(Oc2ccc(-c3ccc(Oc4ccc(NC(=O)c5ccc6c(c5)C(=O)N(c5ccc(Oc7ccc(N8C(=O)c9ccc(*)cc9C8=O)cc7)cc5)C6=O)cc4)cc3)cc2)cc1` (repeat unit) to `*C(=O)c1ccc2c(c1)C(=O)N(c1ccc(OCC(C)(C)COc3ccc(N4C(=O)c5ccc(*)cc5C4=O)cc3)cc1)C2=O` (repeat unit), the glass transition temperature falls from 262.00 °C to 234.00 °C.

First: *c1ccc(-c2cc(-c3ccc(OCCCC#N)cc3)cc(-c3ccc(N4C(=O)c5ccc(-c6ccc7c(c6)C(=O)N(*)C7=O)cc5C4=O)cc3)n2)cc1 (repeat unit)
Second: *c1cc(C)c(/N=C/c2ccc(OCc3ccc(COc4ccc(/C=N/c5cc(C)c(N6C(=O)c7ccc8c9ccc%10c%11c(ccc(c%12ccc(c7c8%12)C6=O)c%119)C(=O)N(*)C%10=O)cc5C)cc4)cc3)cc2)cc1C (repeat unit)
The glass transition temperature of the first is higher: 360.00 °C for the first, 130.00 °C for the second.

Compared with `*C(=O)c1ccc2c(c1)C(=O)N(c1cc(C(=O)c3ccccc3)cc(N3C(=O)c4ccc(*)cc4C3=O)c1)C2=O` (repeat unit), `*C(=O)c1ccc2c(c1)C(=O)N(c1c(C)cc(C(c3cc(C(F)(F)F)cc(C(F)(F)F)c3)c3cc(C)c(N4C(=O)c5ccc(*)cc5C4=O)c(C)c3)cc1C)C2=O` (repeat unit) is higher in glass transition temperature: 282.00 °C for the first, 301.10 °C for the second.

First: *CCCCc1ccc(-c2c(-c3ccccc3)cc(-c3cccc(-c4cc(-c5ccccc5)c(-c5ccc(*)cc5)c(-c5ccccc5)c4-c4ccccc4)c3)c(-c3ccccc3)c2-c2ccccc2)cc1 (repeat unit)
Second: *c1ccc(Oc2ccc(-c3ccc(-c4ccc(Oc5ccc(-c6c7c(c(*)c8ccccc68)C(=O)N(c6ccccc6)C7=O)cc5)c(C(F)(F)F)c4)s3)cc2C(F)(F)F)cc1 (repeat unit)
The glass transition temperature of the first is lower: 180.00 °C for the first, 287.00 °C for the second.

Compared with `*c1ccc([Si](c2ccccc2)(c2ccccc2)c2ccc(-c3nnc(*)o3)cc2)cc1` (repeat unit), `*c1ccc(Oc2ccc(C(C)(C)c3ccc(Oc4ccc(-c5nc(*)nc(-c6ccccc6)n5)cc4)cc3)cc2)cc1` (repeat unit) is lower in glass transition temperature: 262.00 °C for the first, 228.00 °C for the second.

Going from `*CCCCCCCCCn1c2ccccc2c2cc(/C=C(\C#N)C(=O)OCCCCCCOC(=O)/C(C#N)=C/c3ccc4c(c3)c3ccccc3n4*)ccc21` (repeat unit) to `*CCCCCCOC(=O)OCCCCCCCCOC(=O)OCCCCCCn1c(=O)c2cc3c(=O)n(*)c(=O)c3cc2c1=O` (repeat unit), the glass transition temperature falls from 96.40 °C to 8.00 °C.

Going from `*CCCCCC(Cl)C(*)Cl` (repeat unit) to `*CC(*)C(=O)NCCCCCC(=O)O` (repeat unit), the glass transition temperature rises from -17.00 °C to 68.00 °C.

Going from `*OC(C)COC(=O)c1cccc(C(*)=O)c1` (repeat unit) to `*CC(*)OC(=O)c1cccnc1` (repeat unit), the glass transition temperature rises from 77.00 °C to 86.50 °C.

First: *O[Si](C)(C)c1cccc(C(F)(F)C(F)(F)c2cccc([Si](*)(C)C)c2)c1 (repeat unit)
Second: *O[Si](*)(C)CCCCCn1c2ccccc2c2ccccc21 (repeat unit)
The glass transition temperature of the first is lower: -2.00 °C for the first, 7.00 °C for the second.

First: *CC(*)CNc1ccc([N+](=O)[O-])cc1C (repeat unit)
Second: *CC(*)c1ccc(C(=O)CC)cc1 (repeat unit)
The glass transition temperature of the first is higher: 151.00 °C for the first, 102.00 °C for the second.

Compared with `*CCN(*)C(=O)CCCCC` (repeat unit), `*CC(*)(C#N)C(=O)OCCCCCCC` (repeat unit) is higher in glass transition temperature: 7.00 °C for the first, 102.00 °C for the second.

Compared with `*C(=O)c1ccc(N(*)CCCCCCCC)cc1` (repeat unit), `*Nc1ccc(*)cc1OCCCCCCCCCC` (repeat unit) is higher in glass transition temperature: 30.00 °C for the first, 77.00 °C for the second.

First: *CCOCCOC(=O)NCCCCCCNC(=O)O* (repeat unit)
Second: *CCOCCOC(=O)/C=C/C(=O)NCCCCCCNC(=O)/C=C/C(=O)O* (repeat unit)
The glass transition temperature of the first is lower: 17.00 °C for the first, 76.00 °C for the second.

Compared with `*C1Oc2ccccc2C1*` (repeat unit), `*c1ccc(C(=O)NCCCCCCNC(=O)c2ccc(-c3nc4ccccc4nc3*)cc2)cc1` (repeat unit) is higher in glass transition temperature: 65.20 °C for the first, 201.00 °C for the second.

Compared with `*c1cccc(Oc2cccc(Oc3cccc(N4C(=O)C5C6C=CC(C7C(=O)N(*)C(=O)C67)C5C4=O)c3)c2)c1` (repeat unit), `*c1ccc(Sc2ccc3c(c2)Sc2ccc(Sc4ccc(-n5c(=O)c6cc7c(=O)n(*)c(=O)c7cc6c5=O)cc4)cc2S3)cc1` (repeat unit) is higher in glass transition temperature: 177.00 °C for the first, 254.8 °C for the second.

Going from `*CC1CC2CC1C1CCC(CN3C(=O)c4ccc(C(c5ccc6c(c5)C(=O)N(*)C6=O)(C(F)(F)F)C(F)(F)F)cc4C3=O)C21` (repeat unit) to `*CCCCOC(=O)OCC1CCC(COC(=O)O*)CC1` (repeat unit), the glass transition temperature falls from 207.00 °C to 13.00 °C.

First: *CCCCSSCCCCOCO* (repeat unit)
Second: *CCCCOC(=O)CCCCCCCCC(=O)O* (repeat unit)
The glass transition temperature of the first is lower: -76.00 °C for the first, -57.00 °C for the second.

In the case of `*C(=O)NCCCCCCNC(=O)c1ccc(*)nc1` (repeat unit), the glass transition temperature is reported as 80.00 °C.
